Measured values from PubChem BioAssay (NCI).
Values joined by “and” are separate entries in the source; they are usually repeats but may differ in a detail not shown here. Identical values can stand only once.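 How tested: cells in 96-well plates exposed to compound for 48 hours at five concentrations. Here, GI50 denotes the concentration required for 50% inhibition of growth. At the TGI there is no net growth.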

Assays:
Assay in all cases: NCI anticancer screen, dose series, 48 h
[1] = test system: U251 CNS
[2] = test system: MALME-3M melanoma
[3] = test system: MDA-N
[4] = test system: SNB-19 CNS
[5] = test system: DU-145 prostate
[6] = test system: SNB-75 CNS
[7] = test system: NCI-H23 lung
[8] = test system: BT-549 breast
[9] = test system: HCT-116 colon
[10] = test system: SF-295 CNS

CCOC(=O)NC(Nc1ccc(F)cc1F)(C(F)(F)F)C(F)(F)F
TGI [1]: > 100 µM | TGI [2]: > 100 µM | TGI [3]: > 100 µM | TGI [4]: > 100 µM | TGI [5]: > 100 µM | TGI [6]: > 100 µM | TGI [7]: > 100 µM | TGI [8]: > 100 µM | TGI [9]: > 100 µM | TGI [10]: > 100 µM

COc1ccc2[nH]c3ccc4cc[n+](CCN5CCC(C6CCN(CC[n+]7ccc8ccc9[nH]c%10ccc(OC)cc%10c9c8c7)CC6)CC5)cc4c3c2c1
GI50 [1]: > 50 µM | TGI [1]: > 52.3 µM | TGI [2]: 50 µM | TGI [3]: 50 µM | GI50 [4]: > 50 µM | TGI [4]: > 70.9 µM | TGI [5]: 50 µM | TGI [6]: 50 µM | GI50 [7]: 4.46 µM | TGI [7]: > 100 µM | TGI [8]: 50 µM | GI50 [9]: 0.374 µM | TGI [9]: 50 µM and > 57.1 µM | GI50 [10]: 34.5 µM | TGI [10]: 44.8 µM and 42.2 µM

Nc1cc(OCC2CCCCC2)nc(N)n1
TGI [1]: > 100 µM | TGI [2]: > 100 µM | TGI [3]: > 100 µM | TGI [4]: > 100 µM | TGI [5]: > 100 µM | TGI [6]: > 100 µM | TGI [7]: > 100 µM | TGI [8]: > 100 µM | TGI [9]: > 100 µM | TGI [10]: > 100 µM

N=c1oc2cc(O)ccc2cc1C(=O)Nc1ccccn1
TGI [1]: > 100 µM | TGI [2]: > 100 µM | TGI [4]: > 100 µM | TGI [5]: 61 µM | TGI [6]: > 100 µM | TGI [7]: > 100 µM | TGI [8]: > 100 µM | TGI [9]: > 100 µM | TGI [10]: > 100 µM

CN(C)CCNC(=O)c1cccc2c1C(=O)c1ccccc1C2=O
TGI [1]: > 100 µM | TGI [2]: 28.1 µM | TGI [4]: > 100 µM | TGI [6]: > 100 µM | TGI [7]: 50 µM | TGI [9]: 66.5 µM | TGI [10]: > 100 µM

CN(C)N1C(=O)C(=O)N(c2cccc3ccccc23)C1=O
TGI [1]: > 10 µM | TGI [2]: > 10 µM | TGI [3]: > 10 µM | TGI [4]: > 10 µM | TGI [5]: > 10 µM | TGI [6]: > 10 µM | TGI [7]: > 10 µM | TGI [9]: > 10 µM | TGI [10]: > 10 µM

O=C(Nc1ccccc1C(=O)NCc1ccccc1)/C(=C/c1ccccc1O)NC(=O)c1ccccc1
TGI [1]: > 100 µM | TGI [4]: > 100 µM | TGI [5]: > 100 µM | TGI [6]: 63.3 µM | TGI [7]: > 100 µM | TGI [9]: > 100 µM | TGI [10]: > 100 µM

CC(C)(C)OC(=O)NC(CSCc1ccc(C(=O)c2ccccc2)cc1)C(=O)N1CCN(CCCCN2c3ccccc3Sc3cc(N=[N+]=[N-])ccc32)CC1 (stereo not drawn)
TGI [1]: > 100 µM | TGI [2]: > 100 µM | TGI [3]: > 100 µM | TGI [4]: > 100 µM | TGI [5]: > 100 µM | TGI [6]: > 100 µM | TGI [7]: > 100 µM | TGI [8]: > 100 µM | TGI [9]: > 100 µM | TGI [10]: > 100 µM

COC(=O)c1ccc(OCCn2nnc(C(=O)NN)c2C(=O)NN)cc1
TGI [1]: > 100 µM | TGI [2]: > 100 µM | TGI [3]: > 100 µM | TGI [4]: > 100 µM | TGI [5]: > 100 µM | TGI [7]: > 100 µM | TGI [8]: > 100 µM | TGI [9]: > 100 µM | TGI [10]: > 100 µM

CC(C)CC1c2[nH]c3ccccc3c2C[C@H]2C(=O)NC(Cc3c[nH]c4ccccc34)C(=O)N12 (stereo partly drawn)
TGI [1]: 28.4 µM | TGI [2]: 28 µM | TGI [4]: 43.6 µM | TGI [5]: > 100 µM | TGI [7]: 40 µM | TGI [8]: 36.2 µM | TGI [9]: 25.7 µM | TGI [10]: 43.8 µM

COP(=O)(OC)C(N)Cc1c[nH]c2ccccc12 (stereo not drawn)
TGI [1]: > 100 µM | TGI [3]: > 100 µM | TGI [4]: > 100 µM | TGI [5]: > 100 µM | TGI [6]: > 100 µM | TGI [7]: > 100 µM | TGI [9]: > 100 µM | TGI [10]: > 100 µM

COc1ccc2c(c1)/C(=C\c1c(Cl)nc3n1CCS3)C(=O)N2
TGI [1]: 57.6 µM | TGI [2]: > 100 µM | TGI [3]: 6.54 µM | TGI [4]: > 100 µM | TGI [5]: 72.5 µM | TGI [6]: 36.5 µM | TGI [7]: 72.2 µM | TGI [8]: 44 µM | TGI [9]: 25.5 µM | TGI [10]: 44.5 µM

Cc1cn(S(=O)(=O)c2ccccc2)c2c(OCc3ccccc3)cc([N+](=O)[O-])cc12
TGI [1]: > 100 µM | TGI [2]: > 100 µM | TGI [4]: > 100 µM | TGI [5]: > 100 µM | TGI [6]: > 100 µM | TGI [7]: > 100 µM | TGI [8]: > 100 µM | TGI [9]: > 100 µM | TGI [10]: > 100 µM

Cc1cc(=O)[nH]c2cc(NC(=O)C(C)NC(=O)C(C)NC(=O)C(C)NC(=O)OC(C)(C)C)ccc12 (stereo not drawn)
TGI [1]: > 15 µM | TGI [3]: > 15 µM | TGI [4]: > 15 µM | TGI [5]: > 15 µM | TGI [6]: > 15 µM | TGI [7]: > 15 µM | TGI [8]: > 15 µM | TGI [9]: > 15 µM | TGI [10]: > 15 µM

O=C(Cn1c2ccc(Br)cc2c2nc3ccccc3nc21)NCc1ccccc1
TGI [1]: 69.7 µM | TGI [2]: > 100 µM | TGI [3]: > 100 µM | TGI [4]: 72.4 µM | TGI [5]: > 100 µM | TGI [6]: 19.8 µM | TGI [7]: > 100 µM | TGI [8]: > 100 µM | TGI [9]: > 100 µM | TGI [10]: > 100 µM

Cc1cccc2c(=O)c3cccc([C@H](C)C(=O)O)c3oc12
TGI [1]: > 100 µM | TGI [2]: > 100 µM | TGI [3]: > 100 µM | TGI [4]: > 100 µM | TGI [5]: > 100 µM | TGI [7]: > 100 µM | TGI [8]: > 100 µM | TGI [9]: > 100 µM | TGI [10]: > 100 µM

O=c1c(NCc2ccccc2)c(C2(c3ccccc3F)SCCCS2)c1=O
TGI [1]: > 100 µM | TGI [3]: > 100 µM | TGI [4]: > 100 µM | TGI [5]: > 100 µM | TGI [6]: > 100 µM | TGI [7]: > 100 µM | TGI [8]: > 100 µM | TGI [9]: > 100 µM | TGI [10]: > 100 µM

COc1ccc(C2CC(c3sc(Nc4ccc(C)cc4)nc3C)=NN2)cc1 (stereo not drawn)
TGI [1]: 28.4 µM | TGI [4]: 33.8 µM | TGI [6]: 34.1 µM | TGI [7]: 30.7 µM | TGI [9]: 15.1 µM | TGI [10]: 30.5 µM

CCC(C)C(Nc1c2ccccc2nc2c(C(=O)NCCN(C)C)cccc12)C(=O)O (stereo not drawn)
TGI [1]: > 100 µM | TGI [2]: 35.1 µM | TGI [3]: 86.4 µM | TGI [4]: > 100 µM | TGI [5]: > 100 µM | TGI [6]: 61.8 µM | TGI [7]: 79.3 µM | TGI [9]: > 100 µM | TGI [10]: 40.9 µM

COc1c(C(=O)/C(=N/Nc2ccc(C(=O)O)cc2)C(C)=O)c(O)cc2occc12
TGI [1]: > 100 µM | TGI [2]: > 100 µM | TGI [3]: > 100 µM | TGI [4]: > 100 µM | TGI [5]: > 100 µM | TGI [6]: > 100 µM | TGI [7]: > 100 µM | TGI [9]: > 100 µM | TGI [10]: > 100 µM

Nc1cc(C2CCCc3c2[nH]c2ccccc32)ccc1O (stereo not drawn)
TGI [1]: > 100 µM | TGI [2]: > 100 µM | TGI [4]: > 100 µM | TGI [5]: > 100 µM | TGI [6]: > 100 µM | TGI [7]: > 100 µM | TGI [8]: > 100 µM | TGI [9]: > 100 µM | TGI [10]: > 100 µM

O=C1C=C(NCCc2ccc(O)c([N+](=O)[O-])c2)C(=O)c2[nH]cnc21
TGI [1]: > 100 µM | TGI [2]: 17.6 µM | TGI [3]: 31.2 µM | TGI [4]: > 100 µM | TGI [7]: 45 µM | TGI [9]: > 100 µM | TGI [10]: 31.1 µM
